Here are results for one molecule from patent publication US6902724B1, “Enhanced efficacy basic aluminum halides, antiperspirant active compositions and methods for making” (Reheis, Inc., priority 2004, dated 2005).

The conditions of assay [1]: in vivo; cited from earlier work.
Assay [2] can be described thus: In vitro model: pore blocking of Millipore filter (IVMI). Particulars: 0.185 molar aluminum solution; pH 10 buffer; 0.25% NaCl; 100 mm H2O; inverse relation to % sweat reduction. An excerpt: The apparatus and test protocol are based on method described by Reller and Leudders (Reller, H. H. and Leudders, W. L., Advances in Modern Toxicology, 4: 1-59 (1977)) and EP 0586235 B1 disclosures of which are incorporated herein by reference. Reller and Leudders described a millipore system which they used to measure the obstruction caused by the neutralization of various metal salts. They then compared their in vitro findings with those obtained for antiperspirant efficacy of the salts which had been tested in humans and found a reasonable correlation. A modified version of the apparatus and protocol described in […] were developed and used to determine the relative in vitro efficacy of antiperspirant actives. The system is shown schematically in FIG. 2 of the accompanying drawings. The system consists of four major components, namely the pressure control unit 1, the sweat reservoir II, the cell III and the measuring system IV.
The pressure control unit I consisted of a standard nitrogen gas cylinder 1 equipped with a pressure regulator 2 and connected to an on/off isolation valve 3 and pressure relief safety valve 4. The on/off valve 3 isolates the nitrogen cylinder 1 from the rest of the system. The majority of connections were made using ¼″ stainless steel tubing and swage lock fittings. […]

For `[Cl][Al]([Cl])[Cl]` [aluminum chloride solution, aluminum chloride], in assay [1], the “antiperspirancy among the various aluminum salts” value is reported as “highest antiperspirancy”. The “IVMI (In Vitro Model Index)” value in assay [2] is “lowest”.
